Test results as given in patent publication US11690850B2, “Inhibitors of receptor interacting protein kinase I for the treatment of disease” (Board of Regents, The University of Texas System, priority 2019, dated 2023).

Columns and labels:
RIPK1 = RIPK1 (Homo sapiens (Human), UniProt Q13546); assay: ADP-Glo Kinase Assay; type: biochemical; settings: 5 nM RIPK1 protein, 50 μM ATP, 6 hr reaction, average value across multiple runs
In short: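 ADP formed from ATP is measured by ADP-Glo luminescence with 5 nM RIPK1, preincubated 10 min with compound, then 50 μM ATP for 6 h. Buffer is 50 mM HEPES pH 7.5, 50 mM NaCl, 30 mM MgCl2, 1 mM DTT, 0.05% BSA, 0.02% CHAPS. IC50 comes from a four-parameter fit, averaged over runs.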

[1] = tested on: human monocytic cell line U937; assay: Human U937 Cellular Necroptosis Assay; type: cell-based; settings: U-937; U937 cells stimulated with 25 ng/mL human TNFalpha and 25 μM z-VAD-FMK, 22 hr, viability by Cell Titer-Glo 2.0; average value across multiple runs; read-out: hU937 IC50

RIPK1, sequence (Q13546 1-327): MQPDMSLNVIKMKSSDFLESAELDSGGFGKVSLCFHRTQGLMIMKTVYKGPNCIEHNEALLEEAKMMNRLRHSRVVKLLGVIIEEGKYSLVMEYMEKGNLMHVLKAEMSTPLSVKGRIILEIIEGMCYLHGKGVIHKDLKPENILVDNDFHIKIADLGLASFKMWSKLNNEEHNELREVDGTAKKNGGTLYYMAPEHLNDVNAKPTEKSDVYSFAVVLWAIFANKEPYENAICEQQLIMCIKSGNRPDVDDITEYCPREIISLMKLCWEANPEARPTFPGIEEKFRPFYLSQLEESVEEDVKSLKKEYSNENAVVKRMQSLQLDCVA

| SMILES | IC50 (RIPK1) [nM] | IC50 [1] [nM] |
| --- | --- | --- |
| COc1ccc(-n2nc(C(=O)NC3CCc4ccccc4NC3=O)c(=O)cc2C)cc1 (stereo not shown) [Example 65, 1-(4-methoxyphenyl)-6-methyl-4-oxo-N-(2-oxo-2,3,4,5-tetrahydro-1H-benzo[b]azepin-3-yl)-1,4-dihydropyridazine-3-carboxamide] | 47.6 | 124 |
| Cc1cc(=O)c(C(=O)NC2CCc3ccccc3NC2=O)nn1-c1ccc(Cl)cc1 (stereo not shown) [Example 66, 1-(4-chlorophenyl)-6-methyl-4-oxo-N-(2-oxo-2,3,4,5-tetrahydro-1H-benzo[b]azepin-3-yl)-1,4-dihydro-pyridazine-3-carboxamide] | 30.2 | 80.4 |
| COc1cccc(-n2nc(C(=O)NC3CCc4ccccc4NC3=O)c(=O)cc2C)c1 (stereo not shown) [Example 67, 1-(3-methoxyphenyl)-6-methyl-4-oxo-N-(2-oxo-2,3,4,5-tetrahydro-1H-benzo[b]-azepin-3-yl)-1,4-dihydropyridazine-3-carboxamide] | 68.2 | 281 |
| Cc1cc(=O)c(C(=O)NC2CCc3ccccc3NC2=O)nn1-c1cccc(Cl)c1 (stereo not shown) [Example 68, 1-(3-chlorophenyl)-6-methyl-4-oxo-N-(2-oxo-2,3,4,5-tetrahydro-1H-benzo[b]-azepin-3-yl)-1,4-dihydropyridazine-3-carboxamide] | 57.8 | 142 |
| Cc1cc(=O)c(C(=O)NC2CCc3cc(F)cc(F)c3NC2)nn1-c1ccccc1 (stereo not shown) [Example 69, N-(7,9-difluoro-2,3,4,5-tetrahydro-1H-benzo[b]azepin-3-yl)-6-methyl-4-oxo-1-phenyl-1,4-dihydropyridazine-3-carboxamide] | 8500 | 10000 |
| O=C(NC1CCc2ccccc2NC1=O)c1nn(-c2ccccc2)c2ccccc2c1=O (stereo not shown) [Example 70, 4-oxo-N-(2-oxo-2,3,4,5-tetrahydro-1H-benzo[b]azepin-3-yl)-1-phenyl-1,4-dihydrocinnoline-3-carboxamide] | 28.9 | 227 |
| Cc1ccc(-n2nc(C(=O)NC3CCc4ccccc4NC3=O)c(=O)cc2C)cc1 (stereo not shown) [Example 71, 6-methyl-4-oxo-N-(2-oxo-2,3,4,5-tetrahydro-1H-benzo[b]azepin-3-yl)-1-(p-tolyl)-1,4-dihydropyridazine-3-carboxamide] | 30.9 | 50.2 |
| Cc1cc(=O)c(C(=O)NC2CCn3nccc3N(C)C2=O)nn1-c1ccccc1 (stereo not drawn) [Example 72, 6-methyl-N-(4-methyl-5-oxo-5,6,7,8-tetrahydro-4H-pyrazolo[1,5-a][1,3]diazepin-6-yl)-4-oxo-l-phenyl-1,4-dihydropyridazine-3-carboxamide] | 90.6 | 222 |
